This is an account of results in patent publication US7605137B2, “Combination therapy comprising cloretazine” (priority 2004, dated 2009).

“Also recorded” adds a separate entry of the source. Read-outs that look alike come from different tables or passages of the source.

For series [1], the system named is L1210 leukemia. The series is described as follows: In vivo antitumor activity of VNP40101M and AraC on ip L1210 leukemia (1×10^6 cells), survival. Also noted: species or system CD2F1 mice. The following applies: 1×10^6 L1210 cells ip; for Long-term Survivors (%): survival more than 60 days. On the procedure: Eighty Female Balb/c×DBA/2 (CD2F1) mice were inoculated intraperitoneally (ip) on day 0 with 1×10^6 L1210 cells in 0.2 mL phosphate-buffered-saline (PBS). The mice were randomly divided into 6 groups; each group consisted of 10 mice. The animals were untreated or treated with a single bolus dose of VNP40101M at 5, or 10 mg/kg, ip, on day 1 with or without AraC (50 mg/kg, ip) on days 1, 3, 5, 7, and 9. Daring the experiments, mice were observed daily for survival. It was determined that mice that survive for more than 60 days after inoculation of L1210 cells might be regarded as long-term survivors. Kaplan-Meier plots were generated, and survival time of animals was analyzed using student T-test. Significance was defined as P<0.05.

Series [2] concerns L1210 leukemia. In words: In vivo antitumor activity of VNP40101M and fludarabine on ip L1210 leukemia (3×10^6 cells), survival. Also noted: species or system CD2F1 mice. Particulars: 3×10^6 L1210 cells ip; for Long-term Survivors (%): survival more than 60 days. Here is the method:
Eighty Female Balb/c×DBA/2 (CD2F1) mice are inoculated intraperitoneally (ip) on day 0 with 3×10^6 L1210 cells in 0.2 mL phosphate-buffered-saline (PBS). The mice are randomly divided into 6 groups; each group consists of 10 mice. The animals are untreated or treated with a single bolus dose of VNP40101M at 5, or 10 mg/kg, ip, on day 1 with or without fludarabine (70 mg/kg, ip) on multiple days between days 1 to 9. During the experiments, mice are observed daily for survival. It is determined that mice that survive for more than 60 days after inoculation of L1210 cells might be regarded as long-term survivors. Kaplan-Meier plots are generated, and survival time of animals is analyzed using student T-test. Significance is defined as P<0.05.

For series [3] the following is noted: cited from earlier work.
Another series relates to B16F10 melanoma. The following applies: weekly IP, 10-60 mg/kg; cited from earlier work.
Series [4] deals with L1210 leukemia (10^6 tumor cells) resistant to BCNU, cyclophosphamide, or melphalan. The following applies: cited from earlier work.
The test system of series [5] is advanced hematologic malignancies. Particulars: cited from earlier work.
Series [6] has as its system human HTB177 lung (H460) carcinoma. The following applies: weekly IP, 10-60 mg/kg; cited from earlier work.
A further series has as its system human U251 glioma. Particulars: 10 mg/kg q2d×11 or 20 mg/kg q4d×6 IP; tumors staged to ~300 mg; cited from earlier work.
Series [7] deals with intra-cranially implanted L1210 leukemia. The following applies: cited from earlier work.
For series [8] the following is noted: cited from earlier work. The source holds these as a separate data set.
The test system of series [9] is human WiDr colon carcinoma. Particulars: weekly IP, 10-60 mg/kg; cited from earlier work.
In series [10] the test system is L1210 leukemia. In words: In vitro cytotoxicity of VNP40101M and AraC, cell viability assay (mitochondrial oxidoreductase activity). The following applies: AraC and VNP40101M 0.75-6 uM. It counts as cell-based, murine.
Protocol: The cytotoxicity of the combination of VNP40101M and Arac on L1210 leukemia was examined using a cell viability assay. Cells were exposed to VNP40101M, alone or in combination with various concentrations of AraC. After 72 hours, the remaining viable cells were quantified by measuring mitochondrial oxidoreductase activity. Concentrations of AraC and VNP40101M used were between 0.75 and 6 uM. Dose-effect analyses (combination index) showing combination effects of VNP40101M and AraC were analyzed.
For series [11] the following is noted: cited from earlier work. This is another data set of the same source.
The test system of series [12] is murine M109 lung carcinoma. Particulars: cited from earlier work.
For series [13] the following is noted: cited from earlier work. This is another data set of the same source.
Where [14] appears, read: single dose 80-100 mg/kg IP, tumor-bearing mice.
Setting [15] is: VNP40101M 5 mg/kg ip single bolus day 1.
Where [16] appears, read: VNP40101M 10 mg/kg ip single bolus day 1.

For `Nc1ccn([C@@H]2O[C@H](CO)[C@@H](O)[C@@H]2O)c(=O)n1` [AraC, Cytarabine, reference compound], the “Long-term Survivors (%)” value with L1210 leukemia [1] (AraC 50 mg/kg ip days 1, 3, 5, 7, 9) is on record as 0%. Further, in the series with L1210 leukemia [1] (AraC treatment control, 50 mg/kg ip days 1, 3, 5, 7, 9), the “Time to death of all animals” value is no more than 30 days.
Regarding `Nc1nc(F)nc2c1ncn2[C@@H]1O[C@H](CO)[C@@H](O)[C@@H]1O` [Fluda, Fludarabine, reference compound], the “Long-term Survivors (%)” value in the series on L1210 leukemia [2] (fludarabine 70 mg/kg ip multiple days between days 1 to 9) came out at 0%. In the series with L1210 leukemia [2] (fludarabine treatment control, 70 mg/kg ip), the “Time to death of all animals” value was no more than 30 days.
Consider `CNC(=O)N(N(CCCl)S(C)(=O)=O)S(C)(=O)=O` [VNP40101M, 1,2-Bis(methylsulfonyl)-1-(2-chloroethyl)-2-(methylaminocarbonyl) hydrazine], for which the “White blood cell count” value in series [3] (60 mg/kg, by day 4) is listed as “approximately 25 % of baseline”; in series [3] (80 mg/kg, by day 4), ~15 % of baseline; in series [3] (single IP dose 40 mg/kg (120 mg/m^2)) it was 50 % of baseline. Moreover, the WBC recovery entry in series [3] (60-80 mg/kg) is “full recovery by day 21”. The Tumor growth entry is listed as “significant delays in tumor growth” with B16F10 melanoma; “significant delays in tumor growth” in series [6]; “significant delays in tumor growth” in [9]; “delayed tumor growth” in series [12] (10 mg/kg q2d×10 or 20 mg/kg q4d×5 IP, tumors staged to ~150 mg). Moreover, the “Increase in life span compared to control mice” value in series [4] (6 mg/kg/d IP daily for 6 days (total dose 36 mg/kg)) is 333%. In addition, the Cure in series [4] (12-18 mg/kg/d IP daily for 6 days (total doses 72-108 mg/kg)) is 100 % of animals. For the same compound, the Delayed toxic deaths entry in series [4] (d×6 schedule, total doses up to 108 mg/kg) is given as “not observed”. The “Myelosuppression at doses producing long-term survival” value in [4] (non-tumor-bearing mice) is reported as “only modestly myelosuppressive”. The “Time of toxic deaths after treatment” value in series [4] (setting [14]) is greater than 50 days. Also, the “Toxicity of higher single doses” value in series [4] (setting [14]) was “signs of a wasting condition and death in some animals; also recorded: signs of a wasting condition and deaths”. In addition, in [4] (single dose IP 24 hours after tumor inoculation, 20-60 mg/kg (60-180 mg/m^2)), the “Cure (survival ≧60 days)” value is given as 100 % of mice. Further, the Clinical response entry in series [5] (220 mg/m^2, heavily pre-treated patient with AML) is recorded as “substantial clearing of marrow blasts”; in series [5] (300 mg/m^2 single course, one previously untreated patient with high-risk myelodysplasia), “complete response by day 28”; in [5] (532 mg/M^2, patient with AML, by day 28) it was “reduction in marrow blasts”. The “Duration of prolonged marrow aplasia” value in series [5] (708 mg/m^2, one of seven patients) is greater than 80 days. The Peripheral blood blasts result in series [5] (all dose levels (220-708 mg/m^2)) is reported as “reduced peripheral blood blasts at least transiently in most patients”. For the same compound, the Infusion-related reaction entry in [5] (doses ≧400 mg/m2) is “transient infusion-related syndrome”. Besides, the Dose-limiting non-hematologic toxicities entry in series [5] (through the dose of 708 mg/m^2) is listed as “no dose-limiting non-hematologic toxicities were observed”; in series [8] (3-305 mg/m^2), “No dose-limiting non-hematologic toxicities were observed”. Further, the Tumor response entry in the series on human U251 glioma is reported as “complete regressions”. Besides, the “Long-term Survivors (%)” value in the series with L1210 leukemia [2] (setting [15]) came to 0%; in the series on L1210 leukemia [2] (setting [16]), 40%; in the series on L1210 leukemia [1] (setting [15]) it was 50%; in the series with L1210 leukemia [1] (setting [16]) it was 90%. In addition, the “Anti-tumor activity against intra-cranially implanted L1210 leukemia” value in series [7] (IP administration) is “Substantial anti-tumor activity”. Also, in series [7] (inferred from activity against intra-cranially implanted leukemia), the “Crossing the blood brain barrier” value is “good penetration through the blood-brain barrier; also recorded: effective in crossing the blood brain barrier”. Further, the “Cell kill of leukemia cells implanted intracranially” value in series [7] (leukemia cells implanted intracranially) is greater than 6.54 log cell kill. Moreover, the “Maximum tolerated dose (MTD)” value in series [8] (IV infusion over 15-30 minutes every 4-6 weeks) is given as 305 mg/m^2. Besides, the Platelet nadir in series [8] (MTD 305 mg/m^2) was 25 to 33 days. Moreover, the “Patients with grade 3 thrombocytopenia” value in [8] (among seven patients treated at the MTD (305 mg/m^2)) is “six”. In series [8] (human, in vivo), the “Recovery of hematologic toxicities to ≦ grade 1” value was 32-45 days. For the same compound, the “Patients with ≧grade 2 granulocytopenia” value in series [8] (patients treated at the MTD (305 mg/m^2)) is “Five”. Besides, the “Combination effect with AraC on L1210 leukemia” value in the series on L1210 leukemia [10] is reported as “worked synergistically with AraC”. The “Clinical signs or symptoms” value in [11] (3 mg/kg (18 mg/m^2) IV d×5, day 15) is “no clinical signs or symptoms”. Besides, the “Rats with lung findings” value in series [11] (3 mg/kg IV d×5, day 29) is given as 2/10. In addition, the “Microscopic findings (lung)” value in series [11] (3 mg/kg IV d×5) is “alveolar edema, congestion, alveolar histiocytosis, and vascular thrombi”. Further, in series [11] (10 mg/kg (60 mg/m^2) d×5, day 15), the Gross necropsy findings result is reported as “few significant gross necropsy findings”. Also, in [11] (10 mg/kg dose group, day 29), the “Effects on serum chemistries” value is “decreases in total protein and albumin”. For the same compound, the “Animals with thoracic cavity fluid” value in series [11] (10 mg/kg d×5, sacrificed on day 29) is “approximately 50 % of animals”; in series [11] (10 mg/kg d×5, sacrificed on days 30/31) it was 6/6. The Myelosuppression entry in series [11] (doses as high as 10 mg/kg d×5) was “not observed”. In [12] (20 mg/kg q4d×5 IP), the “Delay of time to reach 1 gram” value is 14 days. Also, the “Clinical signs and symptoms” value in series [13] (1 mg/kg (20 mg/m^2) IV d×5) is “minimal clinical signs and symptoms”. The Leukopenia result in [13] (1 mg/kg IV d×5, recovered to baseline by day 15) is given as “mild leukopenia on day 8”; in [13] (3 mg/kg IV d×5), “marked leukopenia by day 8”. The Clinical signs entry in series [13] (3 mg/kg IV d×5, sacrifice on day 8) was “marked clinical signs”; in series [13] (single IV doses 10 and 30 mg/kg (200 and 600 mg/m^2)), “marked clinical signs”. Also, the Tolerability result in [13] (single IV doses 1 and 3 mg/kg, at least 21 days of observation) is “well-tolerated”.
